According to patent publication EP2657234B1, “OPTICALLY-ACTIVE DIAZABICYCLOOCTANE DERIVATIVE AND METHOD FOR MANUFACTURING SAME” (Meiji Seika Pharma Co., Ltd., priority 2010, dated 2012):
Counter-ions that a name gives are not always drawn.

Key:
[1] = tested on: P. aeruginosa PAO1 variant, which constitutively expresses AmpC; test: Combinatorial effect: MIC of piperacillin (PIPC) by agar plate dilution (CLSI) with test compound; assay type: cell-based; settings: for MIC: Pseudomonas aeruginosa, PAO1; for effect of the compound in combination with an antibiotic: result in words
Experimental: The biological activity of the above-mentioned compounds of formulae (H) and (s) can be measured as follows. Specifically, an enzyme inhibitory activity (IC50 value) against AmpC enzyme which is a class C β-lactamase was determined using nitrocephin as a substrate to check whether or not the compounds had the inhibitory activity and compare the activities of them. Further, using constitutive AmpC producing Pseudomonas aeruginosa, a combined antimicrobial activity (MIC) was measured when using Piperacillin (PIPC) as an antibiotic and the compound of formula (H) or (s) in combination to check whether or not the antimicrobial activity of PIPC could be restored.
The combinatorial effect of the test compound with a β-lactam agent against bacteria was evaluated using AmpC constitutive expression strain selected from P. aeruginosa PAO1 through agent exposure. Using piperacillin (PIPC, Sigma-Aldrich) as a β-lactam agent, measurement was conducted by agar plate dilution process in which minimal inhibitory concentration (MIC) of PIPC is based on Clinical and Laboratory Standards Institute (CLSI process). That is, an agara plate containing 4 µg/mL (final concentration) of test compound and PIPC at each concentration in Mueller-Hinton agar (Becton, Dickinson and Company) was made, and bacteria cultured overnight in cation-adjusted Muller-Hinton broth (Becton, Dickinson and Company) were adjusted in the same medium so as to have 10^4 CFU/spot and inoculated on a plate containing an agent. This plate containing an agent was cultured overnight at 35 °C, and the minimum agent concentration in which no growth of bacteria is observed was determined to be MIC.

[2] = target: T1, AmpC β-lactamase (Pseudomonas aeruginosa, UniProt P24735); assay type: biochemical; settings: result in words
T1 construct: a DNA for encoding an AmpC β-lactamase domain excluding a signal peptide was amplified with PCR; made in house; host or cells: E. coli BL21
T1 sequence (P24735 27-397): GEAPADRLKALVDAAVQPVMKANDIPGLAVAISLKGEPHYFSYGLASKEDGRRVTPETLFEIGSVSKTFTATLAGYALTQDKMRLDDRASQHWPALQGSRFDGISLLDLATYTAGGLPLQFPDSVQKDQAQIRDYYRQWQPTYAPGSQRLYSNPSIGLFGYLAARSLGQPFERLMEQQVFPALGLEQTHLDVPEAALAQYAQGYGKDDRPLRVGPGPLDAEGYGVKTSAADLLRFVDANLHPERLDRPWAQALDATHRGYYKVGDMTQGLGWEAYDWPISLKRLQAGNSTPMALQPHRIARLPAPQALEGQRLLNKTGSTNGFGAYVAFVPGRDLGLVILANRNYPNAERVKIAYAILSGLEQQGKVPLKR

NC(=O)C1CCC2CN1C(=O)N2OS(=O)(=O)O [Example 23, (2S,5R)-1,6-Diazabicyclo[3.2.1]octane-2-carboxamide, 7-oxo-6-(sulfoxy)-monosodium salt]
MIC [1]: 4 µg/mL
effect of the compound in combination with an antibiotic [1]: exhibited the activities
β-lactamase enzyme inhibitory activity [2]: exhibited the activities

NC(=O)[C@H]1CC[C@H]2CN1C(=O)N2OS(=O)(=O)O [Example 24, (2R,5S)-1,6-Diazabicyclo[3.2.1]octane-2-carboxamide, 7-oxo-6-(sulfoxy)-monosodium salt]
MIC [1]: 64 µg/mL
effect of the compound in combination with an antibiotic [1]: exhibited no activity
β-lactamase enzyme inhibitory activity [2]: exhibited no activity

C[C@]1(Cn2ccnn2)[C@H](C(=O)O)N2C(=O)C[C@H]2S1(=O)=O [TAZ, Tazobactam, reference compound]
MIC [1]: 64 µg/mL
